Counter-ions that a name gives are not always drawn.
Biological target: recombinant human tau 4R2N (Homo sapiens (Human), UniProt P10636)
Assay: Confirmatory Assay (CONFA), SDS-PAGE quantification of tau monomer and oligomers
Format: biochemical
Settings: tau target 300 nM, Tris-HCl pH 7.4, room temperature 3 hours, compound 0.098 uM-50 uM
Procedure: Bacterial recombinant human tau 4R2N (the largest isoform of tau in the central nervous system, 441 amino acids in length, Seq ID 1) constructs with either 6×-His or StrepII N-terminal epitope tags were purified from bacterial lysate using denaturing conditions to prepare tau in its monomeric form.
CONFA Assay: Confirmatory Assay (CONFA) used as a secondary screen for confirming the mechanism of action of compounds identified as hits using the ALA assay. The assay is performed using a similar procedure as ALA except that it utilizes SDS-PAGE for visualization and quantification of tau monomer and aggregated species (dimer, trimer, tetramer, pentamer, etc.). Only a single construct of tau without epitope tags is necessary, but the assay can use the same target prepared for the ALA assay also.
For the CONFA assay, Tau target (300 nM) was prepared in buffer (Tris-HCl pH 7.4) and was incubated at room temperature for 3 hours with vehicle control (DMSO) and a dose range of a compound of the disclosure (0.098 uM-50 uM). Samples were mixed with an equal volume of 2×SDS sample buffer (4% SDS, 20% glycerol, 0.004% bromphenol blue, 125 mM Tris HCl, pH 7.0) to resolve tau monomer and disulfide-finked oligomers on 4-20% gradient polyacrylamide gels (Biorad) along with positive control (non-oligomerized tau target). The gels were stained with Oriole Fluorescent Gel Stain (BioRad) and imaged using the FluorChem R system (Protein Simple). AlphaView software (Protein Simple) was used for quantification of tau monomer and oligomers.

Chain of recombinant human tau 4R2N (P10636 other isoform, or with tags, fused parts or gaps): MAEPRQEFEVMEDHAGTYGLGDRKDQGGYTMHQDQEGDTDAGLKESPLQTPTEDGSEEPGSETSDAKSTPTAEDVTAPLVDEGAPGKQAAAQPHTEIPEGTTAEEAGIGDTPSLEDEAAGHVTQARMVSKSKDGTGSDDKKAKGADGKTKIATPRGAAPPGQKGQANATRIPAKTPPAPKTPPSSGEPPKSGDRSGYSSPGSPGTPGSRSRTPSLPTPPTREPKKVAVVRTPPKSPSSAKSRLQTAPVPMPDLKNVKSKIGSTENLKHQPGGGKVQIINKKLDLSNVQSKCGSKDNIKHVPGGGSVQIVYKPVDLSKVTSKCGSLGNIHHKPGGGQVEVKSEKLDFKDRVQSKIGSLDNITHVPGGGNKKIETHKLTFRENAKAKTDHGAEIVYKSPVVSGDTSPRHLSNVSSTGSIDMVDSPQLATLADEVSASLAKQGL

Row | IC50 [µM] | Structure (SMILES)
1 | 1.32 | Cc1ccc(-c2c(CCC(C)(C)O)oc3ccc(Br)cc23)o1 [Ex. 15, 4-(5-Bromo-3-(5-methylfuran-2-yl)benzofuran-2-yl)-2-methylbutan-2-ol]
2 | 1.31 | Cc1ccc(C(C)(O)CCc2oc3ccc(Br)cc3c2-c2ccc(C)o2)cc1 (stereo not shown) [Ex. 16, 4-(5-Bromo-3-(5-methylfuran-2-yl)benzofuran-2-yl)-2-p-tolylbutane-2-ol]
3 | 7.57 | CC(=O)CCc1oc2cc(-c3ccncc3)ccc2c1-c1ccc(C)o1 [Ex. 22, 4-(3-(5-Methylfuran-2-yl)-6-(pyridin-4-yl)benzofuran-2-yl)butan-2-one]
4 | 7.18 | COc1cc(-c2ccc3c(-c4ccc(C)o4)c(CCC(C)=O)oc3c2)ccn1 [Ex. 23, 4-(6-(2-Methoxypyridin-4-yl)-3-(5-methylfuran-2-yl)benzofuran-2-yl)butan-2-one]
5 | 11.8 | CC(=O)CCc1oc2cc(-c3cccnc3)ccc2c1-c1ccc(C)o1 [Ex. 24, 4-(3-(5-methylfuran-2-yl)-6-(pyridin-3-yl)benzofuran-2-yl)butan-2-one]
6 | 17.5 | COc1ccc(-c2ccc3c(-c4ccc(C)o4)c(CCC(C)=O)oc3c2)cn1 [Ex. 28, 4-(6-(6-Methoxypyridin-3-yl)-3-(5-methylfuran-2-yl)benzofuran-2-yl)butan-2-one]
7 | 7.38 | CC(=O)CCc1oc2ccc(-c3cncnc3)cc2c1-c1ccc(C)cc1 [Ex. 29, 4-(5-(pyrimidin-5-yl)-3-p-tolylbenzofuran-2-yl)butan-2-one, di HCl Salt]
8 | 20.4 | CC(=O)CCc1oc2cc(-c3cncnc3)ccc2c1-c1ccc(C)o1 [Ex. 30, 4-(3-(5-methylfuran-2-yl)-6-(pyrimidin-5-yl)benzofuran-2-yl)butan-2-one, di HCl Salt]
9 | 9.28 | CC(=O)CCc1oc2cc(-c3cccnc3)ccc2c1-c1ccc(F)cc1 [Ex. 31, 4-(3-(4-fluorophenyl)-6-(pyridin-3-yl)benzofuran-2-yl)butan-2-one HCl Salt]

Continued, compound first:

Row | Structure (SMILES) | IC50 [µM]
10 | COc1ccc(-c2ccc3oc(CCC(C)=O)c(-c4ccc(C)o4)c3c2)cn1 [Ex. 2, 4-(5-(6-Methoxypyridin-3-yl)-3-(5-methylfuran-2-yl)benzofuran-2-yl)butan-2-one] | 4.27
11 | CC(=O)CCc1oc2ccc(-c3cccnc3)cc2c1-c1ccc(C)o1 [Ex. 3, 4-(3-(5-Methylfuran-2-yl)-5-(pyridin-3-yl)benzofuran-2-yl)butan-2-one] | 37.1
12 | CC(=O)CCc1oc2ccc(-c3cccc(O)c3)cc2c1-c1ccc(C)o1 [Ex. 4, 4-(5-(3-Hydroxyphenyl)-3-(5-methylfuran-2-yl)benzofuran-2-yl)butan-2-one] | 24.1
13 | COc1cccc(-c2ccc3oc(CCC(C)=O)c(-c4ccc(C)o4)c3c2)c1 [Ex. 5, 4-(5-(3-Methoxyphenyl)-3-(5-methylfuran-2-yl)benzofuran-2-yl)butan-2-one] | 0.364
14 | CC(=O)CCc1oc2ccc(-c3cccs3)cc2c1-c1ccc(C)o1 [Ex. 8, 4-(3-(5-Methylfuran-2-yl)-5-(thiophen-2-yl)benzofuran-2-yl)butan-2-one] | 5.57
15 | Cc1ccc(-c2c(CCC(=O)O)oc3ccc(Br)cc23)o1 [Ex. 12, 3-[5-Bromo-3-(5-methyl-furan-2-yl)-benzofuran-2-yl]-propionic Acid] | 22.5
16 | Cc1ccc(-c2c(CCC(=O)N3CCC(O)CC3)oc3ccc(Br)cc23)o1 [Ex. 13, 3-[5-Bromo-3-(5-methyl-furan-2-yl)-benzofuran-2-yl]-1-(4-hydroxy-piperidin-1-yl)-propan-1-one] | 3.23

Reference: patent US11306075B2, “Benzofuran, benzothiophene, and indole analogs that inhibit the formation of tau oligomers and their method of use” (OLIGOMERIX INC., priority 2016, dated 2022)
